Earlier results as cited in the CATMoS acute toxicity set (Mansouri et al. 2021).
Where “and” joins values, the source holds several entries; their conditions need not be identical. Identical values can stand only once.

Test: rat acute oral toxicity
Conditions: in vivo

Row | Structure (SMILES) | LD50
1 | COP(=S)(N=C1SCCS1)OC | 10 mg/kg
2 | CCN(CC)CCNC(=O)COc1cc(OC)c(OC)c(OC)c1 | 1760 mg/kg
3 | Cc1cccc(C#N)c1 | 3000 mg/kg
4 | Clc1nc(C(Cl)(Cl)Cl)c(Cl)c(Cl)c1Cl | 1840 mg/kg
5 | CCN(CC)P1(=S)OCc2cc([N+](=O)[O-])ccc2O1 (stereo not given) | 150 mg/kg
6 | O=C=NCC1CCC(CN=C=O)CC1 (stereo not given) | 1600 mg/kg
7 | CC[C@H]1[C@@H]2C[C@H]3[C@@H]4N(C)c5ccccc5[C@]45C[C@@H](C2[C@H]5O)N3[C@@H]1O (stereo not given in full) | 360 mg/kg
8 | Nc1nc2ccc(Br)cc2o1 | 500 mg/kg
9 | CN(N=O)c1ccncc1 | 200 mg/kg
10 | C=C1/C(=C\C=C2/CCC[C@]3(C)[C@@H]([C@H](C)CCCC(C)(C)O)CC[C@@H]23)C[C@@H](O)C[C@@H]1O | 0.62 mg/kg
11 | CCc1ccc2nc(C(F)(F)F)[nH]c2c1 | 28 mg/kg
12 | CC(C)(C)NCC(O)COc1ccccc1OCC1CCCO1 (stereo not given) | 1090 mg/kg
13 | Cc1ccc(C2=CCN(CC=Cc3ccc4c(c3)CCC(=O)N4)CC2)cc1 | 500 mg/kg
14 | CC(CN(CCN(CC(C)OB(O)O)CC(C)OB(O)O)CC(C)OB(O)O)OB(O)O (stereo not given) | 4930 mg/kg
15 | CC1(CO)CN(c2ccccc2)NC1=O (stereo not given) | 566 mg/kg
16 | COC1=C2C[C@@H](C)C[C@H](OC)[C@H](O)[C@@H](C)C=C(C)[C@H](OC(N)=O)[C@@H](OC)C=CC=C(C)C(=O)NC(=CC1=O)C2=O | 2500 mg/kg
17 | CCOC(=S)c1ccc2c(c1)OCO2 | 1160 mg/kg
18 | CN(C)CCC=C1c2ccccc2C(C)(C)c2ccccc21 | 170 mg/kg
19 | Cc1cc(OC(=O)N(C)C)nn1C(=O)N(C)C | 25 mg/kg
20 | COCc1c(CO)cnc(C)c1O | 2150 mg/kg
21 | NCCC[Si]12OCCN(CCO1)CCO2 | 5800 mg/kg
22 | O=C1NC2CCCCN2C12CCN(CCCN1c3ccccc3CCc3ccc(Cl)cc31)CC2 (stereo not given) | 4910 mg/kg
23 | S=C(C=Cc1ccc2c(c1)OCO2)N1CCOCC1 | 285 mg/kg
24 | CCc1nn(-c2ccc(F)cc2)c2c(=O)[nH]ccc12 | 375 mg/kg
25 | CCOP(=O)(OCC)SC(C)C | 179 mg/kg

Row | Structure (SMILES) | LD50
26 | C=CC(=O)OCCCCCCC | 4500 mg/kg
27 | CCCOC(=O)c1ccc(C(=O)OCCC)nc1 | 5230 mg/kg
28 | Cc1cc(=O)nc(C(C)C)[nH]1 | 2700 mg/kg
29 | COC(=O)CC(SP(=S)(OC)OC)C(=O)OC (stereo not given) | 1020 mg/kg
30 | FC(F)(F)C(F)(Br)Br | 54600 mg/kg
31 | CCOP(=S)(OCC)Oc1cc2ccccc2oc1=O | 13 mg/kg
32 | CCOC(=O)C(Br)CBr (stereo not given) | 240 mg/kg
33 | CC(C(=O)O)c1ccc(N2Cc3ccccc3C2=O)cc1 (stereo not given) | 84 mg/kg and 60.8 mg/kg
34 | CCOC(=O)C1=CN(C(=O)CC)C2CCCC(C)N2C1=O (stereo not given) | 2970 mg/kg
35 | CCCCCCCCCCCCCCCCOP(=O)([O-])OCC[N+](C)(C)C | 246 mg/kg
36 | CCCCC(CC)Cc1ccccc1O (stereo not given) | 2460 mg/kg
37 | CCCCNC1CCCCC1 | 330 mg/kg
38 | CN(C)CCN1C(=O)c2ccccc2Nc2cc(Cl)ccc21 | 242 mg/kg
39 | Cc1c(N(C)CS(=O)(=O)O)c(=O)n(-c2ccccc2)n1C | 3000 mg/kg
40 | O=[N+]([O-])c1c(Br)ccc2[nH]c(C(F)(F)F)nc12 | 13.5 mg/kg
41 | Nc1ccc(N)c2c1C(=O)c1ccccc1C2=O | 5790 mg/kg
42 | C=CC(=O)OCCC#N | 180 mg/kg
43 | CNC(=S)NCCSCc1nc[nH]c1C | 1490 mg/kg
44 | CC(C)n1nc(-c2cccc(Cl)c2Cl)c(N)nc1=N | 229 mg/kg
45 | ClCC(Cl)(Cl)C(Cl)Cl | 819 mg/kg
46 | CCOP(=O)(OCC)SCCC(F)=C(F)F | 68 mg/kg
47 | CC(=O)c1ccccn1 | 2280 mg/kg
48 | O=NN(CCCl)C(=O)NC1CCCCC1 | 70 mg/kg
49 | CC(Oc1ccc2ccccc2c1)C(O)=Nc1ccccc1 (stereo not given) | 15000 mg/kg
50 | CN1COCN(Cc2cnc(Cl)s2)C1=N[N+](=O)[O-] | 1560 mg/kg

Row | Structure (SMILES) | LD50
51 | CCOP(=O)(OCC)Oc1ccc2ccc(=O)oc2c1 | 29 mg/kg
52 | C[N+]1(CCC(C(N)=O)(c2ccccc2)c2ccccc2)CCCCCC1 | 2800 mg/kg
53 | CC(C)(C)NCC(O)c1cc(Cl)c(N)c(C(F)(F)F)c1 (stereo not given) | 306 mg/kg
54 | COCCc1ccc(OCC(O)CNC(C)C)cc1 (stereo not given) | 3470 mg/kg
55 | CC1CCCCN1CCCOC(=O)c1ccc(OC2CCCCC2)cc1 (stereo not given) | 2340 mg/kg
56 | O=C(CCCCC(=O)OC1CCCCC1)OC1CCCCC1 | 16000 mg/kg
57 | CC(=O)Oc1ccc(C2(c3ccc(OC(C)=O)cc3)Oc3ccccc3NC2=O)cc1 | 8000 mg/kg
58 | Cc1cccc(C(=O)Cl)c1 | 3440 mg/kg
59 | c1ccc(-c2ccc(C(c3ccccc3)n3ccnc3)cc2)cc1 (stereo not given) | 1460 mg/kg
60 | C=C(C)C(C)=O | 180 mg/kg
61 | CCC(CC)C(=O)OCCOCCOCCOC(=O)C(CC)CC | 6000 mg/kg
62 | CC(C)(Oc1ccc(C(=O)c2ccc(Cl)cc2)cc1)C(=O)O | 1240 mg/kg
63 | NS(=O)(=O)C1CCCCC1 | 80 mg/kg
64 | FC(F)(F)C(F)(F)OC(F)(F)C(F)(F)F | 20000 mg/kg
65 | CCCCCCCCCCCCCCCCCOCC | 1260 mg/kg
66 | N#CCCNc1ccccc1 | 4700 mg/kg
67 | CCOC(=O)CC(CC(=O)OCC)(OC(C)=O)C(=O)OCC | 7000 mg/kg
68 | COc1ccccc1OC | 890 mg/kg
69 | CCOc1ccc2c(c1)C(C)=CC(C)(C)N2 | 3580 mg/kg
70 | CC[n+]1c(C=C2Sc3ccccc3N2C)ccc2ccccc21 | 2240 mg/kg
71 | CC(=O)Oc1ccc(C)cc1 | 1900 mg/kg
72 | CCS(=O)CCOP(=O)(OC)OC=C(Cl)Cl (stereo not given) | 110 mg/kg
73 | CC(=O)Oc1ccc(C#N)cc1 | 500 mg/kg
74 | CCN(CC)C(=O)Nc1ccc(OCC(O)CNC(C)(C)C)c(C(C)=O)c1 (stereo not given) | 2160 mg/kg
75 | O=C1CCCO1 | 1540 mg/kg
